For assay [1], the target named is EGFR Del19/T790M/C797S (H1975-clone #28) (Homo sapiens, UniProt P00533, T790M/C797S, form not given). Nature of the assay: EGFR degradation, HTRF total-EGFR assay, H1975-clone #28 (DTC). In kind it is cell-based. The note with it: H1975-clone #28 Del19/T790M/C797S, 16 h treatment. From the text:
(§1) H1975-clone #28 (Del19/T790M/C797S, or abbr: DTC), H1975-clone #23 (Del19/C797S, or abbr: DC), H1975-clone #25 (L858R/T790M/C797S, or abbr: LTC) and H1975-clone #8 (L858R/C797S, or abbr: LC). EGFR-Del19/T790M/C797S, EGFR-Del19/C797S, EGFR-L858R/T790M/C797S and EGFR-L858R/C797S were stably expressed in H1975 cell lines by lentivirus-mediated over-expression, respectively. The EGFR over-expressed cells then underwent knockout, in which the EGFR targeting sgRNA was designed to only target the endogenous EGFR copies and preserve the exogenous EGFR copies. Followed by the knockout, the edited H1975 cells were seeded in 96 well plates at the concentration of 1 cell/well, cultured for about 2 weeks to allow single clones formation. The formed clones were screened by DNA sequencing and whole exon sequencing analysis for the desired edition. H1975-clone #28, H1975-clone #23, H1975-clone #25 and H1975-clone #8 were finally confirmed as homozygous Del19/T790M/C797S EGFR, Del19/C797S EGFR, L858R/T790M/C797S EGFR and L858R/C797S EGFR clones, respectively.
(§2) H1975-#25, H1975-#28, H1975-#23 and H1975-#8 cells are treated with compounds diluted in 0.2% DMSO cell culture medium on day 2, incubate for 16 h, 37° C., 5% CO2. The final concentration of compounds in all assay is start with 10 μM, 5-fold dilution, total 8 doses were included.
(§3) Total-EGFR cellular kit(64NG1PEH) were used for evaluating EGFR degradation.
(§4) After 16 h treatment, add HTRF lysis buffer to each well; seal the plate and incubate 1 hour at room temperature on a plate shaker; Once the cells are lysed, 16 μL of cell lysate are transferred to a PE 384-well HTRF detection plate; 4 μL of pre-mixed HTRF antibodies are added to each well; cover the plate with a plate sealer, spin 1000 rpm for 1 min, incubate overnight at room temperature; read on BMG PheraStar with HTRF protocol (337 nm-665 nm-620 nm).
(§5) The inhibition (degradation) percentage of the compound was calculated by the following equation:
(§6) Inhibition percentage of Compound=100−100×(Signal−low control)/(High control−low control), wherein signal=each test compound group
(§7) High control=Cell group with added DMSO and without compound, indicating microplate readings without EGFR degradation.
(§8) Imax (Dmax) is the maximum percentage of inhibition (degradation).
(§9) The IC50 (DC50) value of a compound can be obtained by fitting the following equation
(§10) Wherein, X and Y are known values, and IC50, Hillslope, Top and Bottom are the parameters obtained by fitting with software. Y is the inhibition percentage (calculated from the equation), X is the concentration of the compound; IC50 is the concentration of the compound when the 50% inhibition is reached. The smaller the IC50 value is, the stronger the inhibitory ability of the compound is. Vice versa, the higher the IC50 value is, the weaker the ability the inhibitory ability of the compound is; Hillslope represents the slope of the fitted curve, generally around 1*; Bottom represents the minimum value of the curve obtained by data fitting, which is generally 0%±20%; Top represents the maximum value of the curve obtained by data fitting, which is generally 100%±20%. The experimental data were fitted by calculating and analyzing with Dotmatics data analysis software.
For orientation: In TR-FRET formats the signal depends on donor and acceptor labels being close together.

Assay [2] concerns the target T1, EGFR L858R/T790M/C797S (H1975-clone #25) (Homo sapiens, UniProt P00533, C797S/L858R/T790M).
T1 construct: expressed in transfected cells; host or cells: H1975 (clone #25), lentiviral transduction, endogenous EGFR knocked out
Nature of the assay: EGFR degradation, HTRF total-EGFR assay, H1975-clone #25 (LTC). In kind it is cell-based. The note with it: H1975-clone #25 L858R/T790M/C797S, 16 h treatment.
Description: as §1, §2, §3, §4, §5, §6, §7, §8, §9, §10

T1 sequence (P00533 25-1210 T790M/C797S/L858R): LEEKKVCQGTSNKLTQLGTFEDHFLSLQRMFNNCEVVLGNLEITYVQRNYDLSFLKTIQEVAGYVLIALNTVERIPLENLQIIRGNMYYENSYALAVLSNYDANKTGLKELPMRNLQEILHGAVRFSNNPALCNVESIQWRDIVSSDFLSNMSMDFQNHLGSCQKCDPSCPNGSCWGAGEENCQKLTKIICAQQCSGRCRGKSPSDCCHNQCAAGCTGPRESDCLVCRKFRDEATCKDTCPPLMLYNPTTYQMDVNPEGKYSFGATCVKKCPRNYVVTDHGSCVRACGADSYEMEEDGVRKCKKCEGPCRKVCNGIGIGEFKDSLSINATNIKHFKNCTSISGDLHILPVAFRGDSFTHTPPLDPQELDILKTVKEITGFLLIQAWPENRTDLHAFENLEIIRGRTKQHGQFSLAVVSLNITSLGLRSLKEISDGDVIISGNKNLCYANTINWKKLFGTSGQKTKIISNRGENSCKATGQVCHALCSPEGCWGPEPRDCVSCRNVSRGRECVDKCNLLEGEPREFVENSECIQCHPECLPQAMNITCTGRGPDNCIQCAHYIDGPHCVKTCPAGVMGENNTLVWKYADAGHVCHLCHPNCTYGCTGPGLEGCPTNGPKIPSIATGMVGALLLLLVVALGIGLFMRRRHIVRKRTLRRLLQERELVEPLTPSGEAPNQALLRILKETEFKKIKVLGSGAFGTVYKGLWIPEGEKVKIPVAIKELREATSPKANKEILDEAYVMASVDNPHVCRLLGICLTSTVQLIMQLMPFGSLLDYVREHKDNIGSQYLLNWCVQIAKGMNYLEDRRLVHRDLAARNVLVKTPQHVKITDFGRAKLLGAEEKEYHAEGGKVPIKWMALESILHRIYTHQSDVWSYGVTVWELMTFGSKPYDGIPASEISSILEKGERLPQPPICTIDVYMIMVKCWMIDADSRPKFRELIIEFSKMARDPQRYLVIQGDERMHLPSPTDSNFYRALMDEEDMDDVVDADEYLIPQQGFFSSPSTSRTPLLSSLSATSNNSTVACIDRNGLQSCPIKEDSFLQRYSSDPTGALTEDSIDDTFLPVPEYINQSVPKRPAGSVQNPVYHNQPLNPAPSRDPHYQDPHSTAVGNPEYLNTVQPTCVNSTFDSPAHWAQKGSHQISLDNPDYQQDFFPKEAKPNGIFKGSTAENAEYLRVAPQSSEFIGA
EGFR Del19/T790M/C797S (H1975-clone #28), sequence (P00533 with tags, fused parts or gaps DEL746-750/T790M/C797S, form open): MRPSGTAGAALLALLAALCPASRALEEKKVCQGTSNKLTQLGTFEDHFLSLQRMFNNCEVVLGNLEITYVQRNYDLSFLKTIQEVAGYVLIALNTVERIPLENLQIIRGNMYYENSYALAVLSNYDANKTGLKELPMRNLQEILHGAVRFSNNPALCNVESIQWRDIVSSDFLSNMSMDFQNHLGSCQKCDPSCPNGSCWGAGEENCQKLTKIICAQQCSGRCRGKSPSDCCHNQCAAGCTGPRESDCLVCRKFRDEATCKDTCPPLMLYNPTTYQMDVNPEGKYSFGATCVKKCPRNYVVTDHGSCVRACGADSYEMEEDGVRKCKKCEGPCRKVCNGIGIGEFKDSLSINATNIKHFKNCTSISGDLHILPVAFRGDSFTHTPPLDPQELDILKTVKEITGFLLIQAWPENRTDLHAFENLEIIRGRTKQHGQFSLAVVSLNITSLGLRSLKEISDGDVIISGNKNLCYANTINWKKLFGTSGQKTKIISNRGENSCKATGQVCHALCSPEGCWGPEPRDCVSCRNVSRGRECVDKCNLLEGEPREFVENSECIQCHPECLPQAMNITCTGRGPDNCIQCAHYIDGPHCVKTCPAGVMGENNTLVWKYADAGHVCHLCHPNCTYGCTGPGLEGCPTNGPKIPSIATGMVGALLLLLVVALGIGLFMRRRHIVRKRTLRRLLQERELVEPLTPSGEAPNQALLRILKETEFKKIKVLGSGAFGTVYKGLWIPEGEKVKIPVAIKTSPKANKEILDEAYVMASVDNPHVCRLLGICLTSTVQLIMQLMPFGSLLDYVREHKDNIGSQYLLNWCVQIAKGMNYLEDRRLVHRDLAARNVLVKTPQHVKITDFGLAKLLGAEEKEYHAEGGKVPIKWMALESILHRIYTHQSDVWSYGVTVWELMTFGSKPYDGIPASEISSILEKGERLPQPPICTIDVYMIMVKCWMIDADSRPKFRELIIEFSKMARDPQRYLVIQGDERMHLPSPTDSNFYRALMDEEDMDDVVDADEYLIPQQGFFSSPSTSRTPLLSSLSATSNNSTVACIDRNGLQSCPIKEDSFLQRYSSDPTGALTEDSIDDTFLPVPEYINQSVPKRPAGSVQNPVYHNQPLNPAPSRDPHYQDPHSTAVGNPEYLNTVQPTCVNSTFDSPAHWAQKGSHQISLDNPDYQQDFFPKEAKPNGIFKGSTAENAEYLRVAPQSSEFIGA

As to `COC[C@H]1CN(c2ccc3c(c2)N2C[C@H]4C[C@@H](COc5c(cnn5C)-c5cc(cc(C)n5)C(=O)/N=C/2N3)C4)CCN1C1CCN(c2ccc(C3CCC(=O)NC3=O)nc2C)CC1` (stereo partly drawn) [Example 24, 3-(5-(4-((R)-4-((7^1s,7^3S,E)-1^1,2^6-dimethyl-3-oxo-5^2,5^3-dihydro-1^1H,5^1H-9-oxa-4-aza-5(2,1)-benzo[d]imidazola-2(2,4)-pyridina-1(4,5)-pyrazola-7(1,3)-cyclobutanacyclononaphane-5^6-yl)-2-(methoxymethyl)piperazin-1-yl)piperidin-1-yl)-6-methylpyridin-2-yl)piperidine-2,6-dione], in assay [1], the “Degradation H1975 # 28 DTC” value turned out to be 88.0. In addition, the “Degradation H1975 # 25-LTC” value in assay [2] was 91.7.

For `Cc1cc2cc(n1)-c1cnn(C)c1OC[C@H]1C[C@@H](CN3/C(=N/C2=O)Nc2ccc(N4CCN(C5CCN(c6cc(F)c([C@H]7CCC(=O)NC7=O)c(F)c6)CC5)C(=O)C4)cc23)C1` [Example 25, (R)-3-(4-(4-(4-((7^1s,7^3s,E)-1^1,2^6-dimethyl-3-oxo-5^2,5^3-dihydro-1^1H,5^1H-9-oxa-4-aza-5(2,1)-benzo[d]imidazola-2(2,4)-pyridina-1(4,5)-pyrazola-7(1,3)-cyclobutanacyclononaphane-5^6-yl)-2-oxopiperazin-1-yl)piperidin-1-yl)-2,6-difluorophenyl)piperine-2,6-dione], the “Degradation H1975 # 28 DTC” value in assay [1] was 89.9. Further, in assay [2], the “Degradation H1975 # 25-LTC” value is on record as 83.4.

On to `Cc1cc2cc(n1)-c1cnn(C)c1OC[C@H]1C[C@@H](CN3/C(=N/C2=O)Nc2ccc(N4CCN(C5CCN(c6ccc(C7CCC(=O)NC7=O)nc6C)CC5)C(=O)C4)cc23)C1` (some centres unmarked) [Example 26, 3-(5-(4-(4-((7^1s,7^3s,E)-1^1,2^6-dimethyl-3-oxo-5^2,5^3-dihydro-1^1H,5^1H-9-oxa-4-aza-5(2,1)-benzo[d]imidazola-2(2,4)-pyridina-1(4,5)-pyrazola-7(1,3)-cyclobutanacyclononaphane-5^6-yl)-2-oxopiperazin-1-yl)piperidin-1-yl)-6-methylpyridin-2-yl)piperidine-2,6-dione], for which the “Degradation H1975 # 28 DTC” value in assay [1] was determined as 90.8. In addition, the “Degradation H1975 # 25-LTC” value in assay [2] is 92.1.

On to `COC[C@H]1CN(c2ccc3c(c2)N2C[C@H]4C[C@@H](COc5c(cnn5C)-c5cc(cc(C)n5)C(=O)/N=C/2N3)C4)CCN1C1CCN(c2cc(F)c([C@H]3CCC(=O)NC3=O)c(F)c2)CC1` [Example 27, (R)-3-(4-(4-((R)-4-((7^1s,7^3S,E)-1^1,2^6-dimethyl-3-oxo-5^2,5^3-dihydro-1^1H,5^1H-9-oxa-4-aza-5(2,1)-benzo[d]imidazola-2(2,4)-pyridina-1(4,5)-pyrazola-7(1,3)-cyclobutanacyclononaphane-5^6-yl)-2-(methoxymethyl)piperazin-1-yl)piperidin-1-yl)-2,6-difluorophenyl)piperidine-2,6-dione], for which, in assay [1], the “Degradation H1975 # 28 DTC” value is 84.7. Also, the “Degradation H1975 # 25-LTC” value in assay [2] came out at 89.6.

Regarding `Cc1cc2cc(n1)-c1cnn(C)c1OC[C@H]1C[C@@H](CN3/C(=N/C2=O)Nc2ccc(N4CCC(N5CCN(c6ccc(C7CCC(=O)NC7=O)nc6C)CC5)CC4)cc23)C1` (some centres unmarked) [Example 28, 3-(5-(4-(1-((7^1s,7^3s,E)-1^1,2^6-dimethyl-3-oxo-5^2,5^3-dihydro-1^1H,5^1H-9-oxa-4-aza-5(2,1)-benzo[d]imidazola-2(2,4)-pyridina-1(4,5)-pyrazola-7(1,3)-cyclobutanacyclononaphane-5^6-yl)piperidin-4-yl)piperazin-1-yl)-6-methylpyridin-2-yl)piperidine-2,6-dione], in assay [1], the “Degradation H1975 # 28 DTC” value was 79.8. Also, the “Degradation H1975 # 25-LTC” value in assay [2] is 92.1.

Consider `Cc1cc2cc(n1)-c1cnn(C)c1OC[C@H]1C[C@@H](CN3/C(=N/C2=O)Nc2ccc(N4CCN(C5CN(c6cc(F)c([C@H]7CCC(=O)NC7=O)c(F)c6)C5)CC4)cc23)C1` [Example 29, (R)-3-(4-(3-(4-((7^1s,7^3s,E)-1^1,2^6-dimethyl-3-oxo-5^2,5^3-dihydro-1^1H,5^1H-9-oxa-4-aza-5(2,1)-benzo[d]imidazola-2(2,4)-pyridina-1(4,5)-pyrazola-7(1,3)-cyclobutanacyclononaphane-5^6-yl)piperazin-1-yl)azetidin-1-yl)-2,6-difluorophenyl)piperidine-2,6-dione], for which the “Degradation H1975 # 28 DTC” value in assay [1] was 78.3. Also, the “Degradation H1975 # 25-LTC” value in assay [2] is reported as 42.6.

As for `Cc1cc2cc(n1)-c1cnn(C)c1OC[C@H]1C[C@@H](CN3/C(=N/C2=O)Nc2ccc(N4CCN(C5CCN(c6cc(F)c([C@H]7CCC(=O)NC7=O)c(F)c6)CC5)[C@H](CO)C4)cc23)C1` [Example 30, (R)-3-(4-(4-((S)-4-((7^1s,7^3R,E)-1^1,2^6-dimethyl-3-oxo-5^2,5^3-dihydro-1^1H,5^1H-9-oxa-4-aza-5(2,1)-benzo[d]imidazola-2(2,4)-pyridina-1(4,5)-pyrazola-7(1,3)-cyclobutanacyclononaphane-5^6-yl)-2-(hydroxymethyl)piperazin-1-yl)piperidin-1-yl)-2,6-difluorophenyl)piperidine-2,6-dione], in assay [1], the “Degradation H1975 # 28 DTC” value came to 84.4. Further, the “Degradation H1975 # 25-LTC” value in assay [2] worked out at 90.3.

As to `Cc1cc2cc(n1)-c1cnn(C)c1OC[C@H]1C[C@@H](CN3/C(=N/C2=O)Nc2ccc(N4CCN(C5CCN(c6cc(F)c([C@H]7CCC(=O)NC7=O)c(F)c6)CC5)[C@@H](CO)C4)cc23)C1` [Example 31, (R)-3-(4-(4-((R)-4-((7^1s,7^3S,E)-1^1,2^6-dimethyl-3-oxo-5^2,5^3-dihydro-1^1H,5^1H-9-oxa-4-aza-5(2,1)-benzo[d]imidazola-2(2,4)-pyridina-1(4,5)-pyrazola-7(1,3)-cyclobutanacyclononaphane-5^6-yl)-2-(hydroxymethyl)piperazin-1-yl)piperidin-1-yl)-2,6-difluorophenyl)piperidine-2,6-dione], in assay [1], the “Degradation H1975 # 28 DTC” value is given as 84.2. The “Degradation H1975 # 25-LTC” value in assay [2] came to 90.5.

In the case of `Cc1cc2cc(n1)-c1cnn(C)c1OC[C@H]1C[C@@H](CN3/C(=N/C2=O)Nc2ccc(N4CCN(C5CCN(c6cnc([C@H]7CCC(=O)NC7=O)cc6C)CC5)C[C@@H]4C)cc23)C1` [Example 32, 3-(5-(4-((S)-4-((7^1s,7^3R,E)-1^1,2^6-dimethyl-3-oxo-5^1,5^3-dihydro-1^1H,5^1H-9-oxa-4-aza-5(2,1)-benzo[d]imidazola-2(2,4)-pyridina-1(4,5)-pyrazola-7(1,3)-cyclobutanacyclononaphane-5^6-yl)-3-methylpiperazin-1-yl)piperidin-1-yl)-4-methylpyridin-2-yl)piperidine-2,6-dione], in assay [1], the “Degradation H1975 # 28 DTC” value amounted to 88.8. Also, the “Degradation H1975 # 25-LTC” value in assay [2] is given as 88.8.

As for `Cc1cc2cc(n1)-c1cnn(C)c1OC[C@H]1C[C@@H](CN3/C(=N/C2=O)Nc2ccc(N4CCN(C5CCN(c6ccc(C7CCC(=O)NC7=O)nc6C)CC5)C[C@@H]4C)cc23)C1` (stereo partly drawn) [Example 33, 3-(5-(4-((S)-4-((7^1s,7^3R,E)-1^1,2^6-dimethyl-3-oxo-5^2,5^3-dihydro-1^1H,5^1H-9-oxa-4-aza-5(2,1)-benzo[d]imidazola-2(2,4)-pyridina-1(4,5)-pyrazola-7(1,3)-cyclobutanacyclononaphane-5^6-yl)-3-methylpiperazin-1-yl)piperidin-1-yl)-6-methylpyridin-2-yl)piperidine-2,6-dione], the “Degradation H1975 # 28 DTC” value in assay [1] was found to be 89.4. Also, the “Degradation H1975 # 25-LTC” value in assay [2] came to 93.3.

The values are drawn from patent publication US20250332266A1, “COMPOUNDS FOR THE DEGRADATION OF EGFR KINASE” (BeiGene Switzerland GmbH, priority 2022, published 2025).
